Assay results as given in patent US6906068B1, “Substituted polycyclic aryl and heteroaryl 1,2,4 - triazinones useful as anticoagulants” (Pharmacia Corporation, priority 1999, dated 2005).

What was measured:
Assay type in all cases: biochemical
[1] = target: T1, TF-VIIa (recombinant soluble tissue factor and recombinant human factor VIIa) (Homo sapiens, UniProt P08709); test: TF-VIIa Assay
T1 construct: conversion of coagulation factor VII to VIIa by Xa; purchased American Diagnostica, Greenwich Conn; host or cells: factor VIIa purchased; soluble TF made in house in E. coli
Method: In this assy 100 nM recombinant soluble tissue factor and 2 nM recombinant human factor VIIa are added to a 96-well assay plate containing 0.4 mM of the substrate, N-Methylsulfonyl-D-phe-gly-arg-p-nitroaniline and either inhibitor or buffer (5 mM CaCl2, 50 mM Tris-HCl, pH 8.0, 100 mM NaCl, 0.1% BSA). The reaction, in a final volume of 100 ul is measured immediately at 405 nm to determine background absorbance. The plate is incubated at room temperature for 60 min, at which time the rate of hydrolysis of the substrate is measured by monitoring the reaction at 405 nm for the release of p-nitroaniline. Percent inhibition of TF-VIIa activity is calculated from OD405 nm value from the experimental and control sample.
(§1) Recombinant soluble TF, consisting of amino acids 1-219 of the mature protein sequence was expressed in E. coli and purified using a Mono Q Sepharose FPLC. Recombinant human VIIa was purchased from American Diagnostica, Greenwich Conn. and chromogenic substrate N-Methylsulfonyl-D-phe-gly-arg-p-nitroaniline was prepared by American Peptide Company, Inc., Sunnyvale, Calif. Factor Xa was obtained from Enzyme Research Laboratories, South Bend Ind., thrombin from Calbiochem, La Jolla, Calif., and trypsin and L-BAPNA from Sigma, St. Louis Mo. The chromogenic substrates S-2765 and S-2238 were purchased from Chromog nix, Sweden.

[2] = target: T2, trypsin, type IX from porcine pancreas (Sus scrofa, UniProt P00761); test: Trypsin Assay; settings: read-out: Trpysin II IC50
T2 construct: purchased Sigma, St. Louis Mo. type IX; host or cells: porcine pancreas
Method: 5 ug/ml trypsin, type IX from porcine pancreas and 0.375 mM N-α-Benzoyl-L-arginine-p-nitroanilide (L-BAPNA) are added to a 96-well assay plate containing either inhibitor or buffer (50 mM Tris-HCl, pH 8.0, 100 mM NaCl, 0.1% BSA). The reactions, in a final volume of 100 ul are measured immediately at 405 nm to determine background absorbance. The plate is incubated at room temperature for 60 min, at which time the rate of hydrolysis of the substrate is measured by monitoring the reaction at 405 nm for the release of p-nitroaniline. Percent inhibition of trypsin activity is calculated from OD405 nm value from the experimental and control sample.
as §1

human thrombin = human thrombin (Homo sapiens, UniProt P00734); test: Thrombin Assay; settings: @ 30 uM
human factor Xa = target: T3, human factor Xa (Homo sapiens, UniProt P00742); test: Xa Assay; settings: @ 30 uM
T3 construct: purchased Enzyme Research Laboratories, South Bend Ind
Method: 0.3 nM human factor Xa and 0.15 mM N-α-Benzyloxycarbonyl-D-arginyl-L-glycyl-L-arginine-p-nitroaniline-dihydrochloride (S-2765) are added to a 96-well assay plate containing either inhibitor or buffer (50 mM Tris-HCl, pH 8.0, 100 mM NaCl, 0.1% BSA). The reaction, in a final volume of 100 ul is measured immediately at 405 nm to determine background absorbance. The plate is incubated at room temperature for 60 min, at which time the rate of hydrolysis of the substrate is measured by monitoring the ieaction at 405 nm for the release of p-nitroaniline. Percent inhibition of Xa activity is calculated from OD405 nm value from the experimental and control sample.
as §1

T3 sequence (P00742 235-488 limits assumed): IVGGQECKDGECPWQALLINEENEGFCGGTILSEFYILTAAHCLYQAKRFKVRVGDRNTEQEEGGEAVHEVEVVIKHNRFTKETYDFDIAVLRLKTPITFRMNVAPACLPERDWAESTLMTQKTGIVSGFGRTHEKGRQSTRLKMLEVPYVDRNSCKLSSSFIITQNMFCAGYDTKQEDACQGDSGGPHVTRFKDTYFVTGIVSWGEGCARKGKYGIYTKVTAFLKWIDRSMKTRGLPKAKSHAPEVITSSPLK
T3 sequence (P00742 41-179 partner limits assumed): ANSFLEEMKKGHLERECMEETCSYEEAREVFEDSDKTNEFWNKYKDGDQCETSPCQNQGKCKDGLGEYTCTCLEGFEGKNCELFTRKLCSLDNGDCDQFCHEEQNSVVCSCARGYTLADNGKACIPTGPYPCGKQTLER
T2 sequence (P00761 9-231): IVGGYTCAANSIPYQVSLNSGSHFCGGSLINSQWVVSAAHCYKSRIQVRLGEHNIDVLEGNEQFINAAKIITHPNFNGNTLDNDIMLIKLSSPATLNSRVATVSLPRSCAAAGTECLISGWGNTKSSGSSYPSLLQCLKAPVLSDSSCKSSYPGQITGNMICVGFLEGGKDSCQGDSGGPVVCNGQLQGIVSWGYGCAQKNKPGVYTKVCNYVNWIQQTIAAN
T1 sequence (P08709 213-466 limits assumed): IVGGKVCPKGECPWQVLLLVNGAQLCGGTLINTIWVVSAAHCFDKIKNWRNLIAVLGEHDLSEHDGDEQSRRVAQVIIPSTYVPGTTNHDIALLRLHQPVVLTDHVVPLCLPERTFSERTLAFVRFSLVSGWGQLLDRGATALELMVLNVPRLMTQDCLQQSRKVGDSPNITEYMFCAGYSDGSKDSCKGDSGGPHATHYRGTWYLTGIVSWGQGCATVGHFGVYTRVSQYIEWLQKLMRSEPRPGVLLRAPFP
T1 sequence (P08709 61-212 partner limits assumed): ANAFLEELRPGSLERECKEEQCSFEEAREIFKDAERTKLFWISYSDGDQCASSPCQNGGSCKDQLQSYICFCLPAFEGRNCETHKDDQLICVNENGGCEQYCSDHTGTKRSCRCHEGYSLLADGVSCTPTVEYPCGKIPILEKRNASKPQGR
T1 sequence (P13726 33-251 partner limits assumed): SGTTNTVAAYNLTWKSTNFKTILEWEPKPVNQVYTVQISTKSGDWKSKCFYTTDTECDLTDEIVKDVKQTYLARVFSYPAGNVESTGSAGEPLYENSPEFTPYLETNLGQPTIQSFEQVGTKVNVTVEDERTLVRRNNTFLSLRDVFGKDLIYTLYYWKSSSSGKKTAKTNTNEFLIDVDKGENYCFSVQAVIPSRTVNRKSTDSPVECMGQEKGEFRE

| IC50 [1] | IC50 [2] | Factor Xa percent inhibition (human factor Xa) | SMILES | Thrombin II percent inhibition (human thrombin) |
| --- | --- | --- | --- | --- |
| > 30 µM | > 30 µM |  | N=C(N)c1cccc(CNC(=O)Cn2c(-c3ccccc3)ncc(NS(=O)(=O)Cc3ccccc3)c2=O)c1 [Example 2] |  |
|  |  | 33% @ 30 uM | CC(C)Nc1cnc(-c2cccnc2)n(CC(=O)NCc2ccc(C(=N)N)cc2)c1=O [Example 7] |  |
|  |  | 15% @ 30 uM | N=C(N)c1ccc(CNC(=O)Cn2c(-c3cccc(N)c3)ncc(NC3CCC3)c2=O)cc1 [Example 8] | 42% @ 30 uM |

| SMILES | IC50 [1] | IC50 [2] | Factor Xa percent inhibition (human factor Xa) | Thrombin II percent inhibition (human thrombin) |
| --- | --- | --- | --- | --- |
| CC(C)Nc1cnc(-c2cccc(N)c2)n(CC(=O)NCc2ccc(C(=N)N)cc2)c1=O [Example 6] |  |  | 33% @ 30 uM | 43% @ 30 um |
